Reference: US7998952B2, “Thiolactams and uses thereof” (Millennium Pharmaceuticals, Inc., priority 2008, dated 2011)

Target: T1, recombinant human PLK1[2-369]T210D (Homo sapiens, UniProt P53350, T210D)
T1 construct: recombinant human PLK1[2-369]T210D; Smt (SUMO) fusion partner (N, cleaved yes); host or cells: E. coli
Experiment: PLK1 DELFIA Kinase Assay
Format: biochemical
Details: 50 μM ATP, 2 μM peptide substrate, 0.3 nM enzyme, 90 minutes at room temperature
Description: Recombinant human PLK1 was expressed in E. coli as an N-terminal Smt fusion protein using a proprietary vector (pSGX4) by Structural Genomics (SGX). The fusion partner was removed through cleavage with Ulp1 after an initial purification using a Ni2+ affinity column.
PLK1 DELFIA® Kinase Assay
The enzymatic reaction mixture, with or without PLK inhibitors, was incubated 90 minutes at room temperature before termination with 50 μL of STOP buffer containing 1% BSA, 0.05% Tween20, 100 mM EDTA. 50 μL of the stopped enzyme reaction mixture was transferred to a Neutravidin-coated 384-well plate (Pierce) and incubated at room temperature for 60 minutes. […] The wells were washed and then the bound europium was liberated using 50 μL of Enhancement Solution (Perkin Elmer). Quantification of europium was done using a Pherastar (BMG Labtech)

T1 sequence (P53350 2-369 T210D): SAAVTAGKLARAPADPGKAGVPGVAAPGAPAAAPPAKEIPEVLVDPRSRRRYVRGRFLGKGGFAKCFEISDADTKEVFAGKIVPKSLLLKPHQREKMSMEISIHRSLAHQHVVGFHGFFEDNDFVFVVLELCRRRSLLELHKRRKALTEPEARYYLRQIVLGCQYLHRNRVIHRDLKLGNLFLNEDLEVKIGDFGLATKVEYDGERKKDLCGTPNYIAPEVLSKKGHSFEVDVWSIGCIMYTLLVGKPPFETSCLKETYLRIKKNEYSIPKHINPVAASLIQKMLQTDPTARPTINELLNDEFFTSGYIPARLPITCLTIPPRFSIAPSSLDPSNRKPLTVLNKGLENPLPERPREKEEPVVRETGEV

| IC50 [nM] | Structure (SMILES) |
| --- | --- |
| < 5 | COc1ccc2c(c1)NC(=S)Cc1cnc(Nc3cc(CCCN(C)C)cnc3C)nc1-2 [Compound I-1, 2-({5-[3-(dimethylamino)propyl]-2-methylpyridin-3-yl}amino)-9-methoxy-5,7-dihydro-6H-pyrimido[5,4-d][1]benzazepine-6-thione] |
| 5 to 25 | Cc1nc(N(C)C2CCN(C)C2)ccc1Nc1ncc2c(n1)-c1ccc(Cl)cc1NC(=S)C2 (centres unmarked) [Compound I-3, 9-chloro-2-({2-methyl-6-[methyl(1-methylpyrrolidin-3-yl)amino]pyridin-3-yl}amino)-5,7-dihydro-6H-pyrimido[5,4-d][1]benzazepine-6-thione] |
| < 5 | CCc1ccc2c(c1)NC(=S)Cc1cnc(Nc3cc(CCCN(C)C)cnc3C)nc1-2 [Compound I-5, 2-({5-[3-(dimethylamino)propyl]-2-methylpyridin-3-yl}amino)-9-ethyl-5,7-dihydro-6H-pyrimido[5,4-d][1]benzazepine-6-thione] |
| < 5 | Cc1ncc(CCN2CCN(C)CC2)cc1Nc1ncc2c(n1)-c1ccc(Cl)cc1NC(=S)C2 [Compound I-6, 9-chloro-2-({2-methyl-5-[2-(4-methylpiperazin-1-yl)ethyl]pyridin-3-yl}amino)-5,7-dihydro-6H-pyrimido[5,4-d][1]benzazepine-6-thione] |
| < 5 | Cc1nc(N2CCCC(N(C)C)C2)ccc1Nc1ncc2c(n1)-c1ccc(Cl)cc1NC(=S)C2 (centres unmarked) [Compound I-7, 9-chloro-2-({6-[3-(dimethylamino)piperidin-1-yl]-2-methylpyridin-3-yl}amino)-5,7-dihydro-6H-pyrimido[5,4-d][1]benzazepine-6-thione] |
| < 5 | Cc1ncc(CCN2C[C@@H](C)O[C@H](C)C2)cc1Nc1ncc2c(n1)-c1ccc(Cl)cc1NC(=S)C2 [Compound I-10] |
| < 5 | Cc1ncc(CCCCN(C)C)cc1Nc1ncc2c(n1)-c1ccc(C(F)(F)F)cc1NC(=S)C2 [Compound I-12, 2-({5-[4-(dimethylamino)butyl]-2-methylpyridin-3-yl}amino)-9-(trifluoromethyl)-5,7-dihydro-6H-pyrimido[5,4-d][1]benzazepine-6-thione] |
| < 5 | Cc1ncc(C2CCN(C)CC2)cc1Nc1ncc2c(n1)-c1ccc(Cl)cc1NC(=S)C2 [Compound I-14, 9-chloro-2-{[2-methyl-5-(1-methylpiperidin-4-yl)pyridin-3-yl]amino}-5,7-dihydro-6H-pyrimido[5,4-d][1]benzazepine-6-thione] |
| < 5 | Cc1ncc(CCN2CCC(N(C)C)C2)cc1Nc1ncc2c(n1)-c1ccc(Cl)cc1NC(=S)C2 (centres unmarked) [Compound I-15, 9-chloro-2-[(5-{2-[3-(dimethylamino)pyrrolindin-1-yl]ethyl}-2-methylpridin-3-yl)amino]-5,7-dihydro-6H-pyrimido[5,4-d][1]benzazepine-6-thione] |
| < 5 | CCN1CCC(c2cnc(C)c(Nc3ncc4c(n3)-c3ccc(Cl)cc3NC(=S)C4)c2)CC1 [Compound I-17, 9-chloro-2-{[5-(1-ethylpiperidin-4-yl)-2-methylpyridin-3-yl]amino}-5,7-dihydro-6H-pyrimido[5,4-d][1]benzazepine-6-thione] |
| < 5 | COc1ncc(CCCN(C)C)cc1Nc1ncc2c(n1)-c1ccc(Cl)cc1NC(=S)C2 [Compound I-24, 9-chloro-2-({5-[3-(dimethylamino)propyl]-2-methoxypyridin-3-yl}amino)-5,7-dihydro-6H-pyrimido[5,4-d][1]benzazepine-6-thione] |

Second part, the compound before the results:

| Structure (SMILES) | IC50 [nM] |
| --- | --- |
| CCN1CCN(c2cnc(C)c(Nc3ncc4c(n3)-c3ccc(C(F)(F)F)cc3NC(=S)C4)c2)C[C@@H]1C [Compound I-2, 2-({5-[(3S)-4-ethyl-3-methylpiperazin-1-yl]-2-methylpyridin-3-yl}amino)-9-(trifluoromethyl)-5,7-dihydro-6H-pyrimido[5,4-d][1]benzazepine-6-thione] | < 5 |
| Cc1ccc(Nc2ncc3c(n2)-c2ccc(C(F)(F)F)cc2NC(=S)C3)c(C)n1 [Compound I-4, 2-[(2,6-dimethylpyridin-3-yl)amino]-9-(trifluoromethyl)-5,7-dihydro-6H-pyrimido[5,4-d][1]benzazepine-6-thione] | < 5 |
| COc1ncc(Nc2ncc3c(n2)-c2ccc(Cl)cc2NC(=S)C3)cc1CCCN(C)C [Compound I-8, 9-chloro-2-({5-[3-(dimethylamino)propyl]-6-methoxypyridin-3-yl}amino)-5,7-dihydro-6H-pyrimido[5,4-d][1]benzazapine-6-thione] | < 5 |
| Cc1nc(N2CCCC(N(C)C)C2)ccc1Nc1ncc2c(n1)-c1ccc(C(F)(F)F)cc1NC(=S)C2 (centres unmarked) [Compound I-9, 2-({6-[3-(dimethylamino)piperidin-1-yl]-2-methylpyridin-3-yl}amino)-9-(trifluoromethyl)-5,7-dihydro-6H-pyrimido[5,4-d][1]benzazepine-6-thione] | < 5 |
| CCN1CCN(c2cncc(Nc3ncc4c(n3)-c3ccc(Cl)cc3NC(=S)C4)c2)C[C@@H]1C [Compound I-11, 9-chloro-2-({5-[(3S)-4-ethyl-3-methylpiperazin-1-yl]pyridin-3-yl}amino)-5,7-dihydro-6H-pyrimido[5,4-d][1]benzazepine-6-thione] | < 5 |
| S=C1Cc2cnc(Nc3ccc(N4CCOCC4)nc3)nc2-c2ccc(Cl)cc2N1 [Compound I-13, 9-chloro-2-[(6-morpholin-4-ylpyridin-3-yl)amino]-5,7-dihydro-6H-pyrimido[5,4-d][1]benzazepine-6-thione] | < 5 |
| Cc1nc(CCCN(C)C)ccc1Nc1ncc2c(n1)-c1ccc(Cl)cc1NC(=S)C2 [Compound I-16, 9-chloro-2-({6-[3-(dimethylamino)propyl]-2-methylpyridin-3-yl}amino)-5,7-dihydro-6H-pyrimido[5,4-d][1]benzazepine-6-thione] | 5 to 25 |
| Cc1nc(NC2CCOCC2)ccc1Nc1ncc2c(n1)-c1ccc(C(F)(F)F)cc1NC(=S)C2 [Compound I-18, 2-{[2-methyl-6-(tetrahydro-2H-pyran-4-ylamino)pyridin-3-yl]amino}-9-(trifluoromethyl)-5,7-dihydro-6H-pyrimido[5,4-d][1]benzazepine-6-thione] | < 5 |
| Cc1nc(NC2CCOCC2)ccc1Nc1ncc2c(n1)-c1ccc(Cl)cc1NC(=S)C2 [Compound I-19, 9-chloro-2-{[2-methyl-6-(tetrahydro-2H-pyran-4-ylamino)pyridin-3-yl]amino}-5,7-dihydro-6H-pyrimido[5,4-d][1]benzazepine-6-thione] | < 5 |
| Cc1nc(C(=O)NCCN2CCOCC2)ccc1Nc1ncc2c(n1)-c1ccc(C(F)(F)F)cc1NC(=S)C2 [Compound I-21] | < 5 |
| Cc1nc(NC2CCN(C)CC2)ccc1Nc1ncc2c(n1)-c1ccc(Cl)cc1NC(=S)C2 [Compound I-22, 9-chloro-2-({2-methyl-6-[(1-methylpiperidin-4-yl)amino]pyridin-3-yl}amino)-5,7-dihydro-6H-pyrimido[5,4-d][1]benzazepine-6-thione] | < 5 |
| Cc1nc(NCCCN(C)C)ccc1Nc1ncc2c(n1)-c1ccc(C(F)(F)F)cc1NC(=S)C2 [Compound I-23, 2-[(6-{[3-(dimethylamino)propyl]amino}-2-methylpyridin-3-yl)amino]-9-(trifluoromethyl)-5,7-dihydro-6H-pyrimido[5,4-d][1]benzazepine-6-thione] | < 5 |
